Laboratory results reported in patent publication US12286632B2, “Rationally-designed synthetic peptide shuttle agents for delivering polypeptide cargos from an extracellular space to the cytosol and/or nucleus of a target eukaryotic cell, uses thereof, methods and kits relating to same” (Feldan Bio Inc., priority 2016, dated 2025).

Assays:
HeLa cells = assay: FITC-labeled anti-tubulin antibody transduction assay (flow cytometry, cell viability, microscopy); settings: antibody 0.5 μM; shuttle 50 μM; 10 seconds, Protocol B
Protocol: The delivery and microscopy protocols are described in Example 3.
HeLa cells were cultured and tested in the protein transduction assay described in Example 3.1. […] The cells were subjected to flow cytometry analysis as described in Example 3.3.

HT2 cells = assay: GFP-NLS transduction in different adherent and suspension cells (flow cytometry, Pos cells % and viability %); type: cell-based; settings: Protocol C, 5 μM shuttle, 5 μM GFP-NLS, 15 seconds
Protocol: The ability of the shuttle agent His-CM18-PTD4 to deliver GFP-NLS to the nuclei of different adherent and suspension cells using Protocols B (adherent cells) or C (suspension cells) as described in Example 9.1 was examined. The cell lines tested included: HeLa, Balb3T3, HEK 293T, CHO, NIH3T3, Myoblasts, Jurkat, THP-1, CA46, and HT2 cells, which were cultured as described in Example 1. GFP-NLS (5 μM; see Example 5.1) was co-incubated with 35 μM of His-CM18-PTD4 and exposed to adherent cells for 10 seconds (Protocol B), or was co-incubated with 5 μM of His-CM18-PTD4 and exposed to suspension cells for 15 seconds (Protocol C). […] “Pos cells (%)” is the mean percentages of all cells that emanate a GFP signal.

THP-1 cells = assay: HOXB4-WT transduction: target gene mRNA by real-time PCR (Fold over control) and total RNA (ng/μL) as marker for cell viability; type: cell-based, human; settings: for Total RNA in ng/μL (mean ± St. Dev): THP-1, serum
Protocol: Control and treated cells are transferred to separate sterile 1.5-mL tubes and centrifuged for 5 minutes at 300g. The cell pellets are resuspended in appropriate buffer to lyse the cells. RNAase-free 70% ethanol is then added followed by mixing by pipetting. The lysates are transferred to an RNeasy™ Mini spin column and centrifuged 30 seconds at 13000 RPM. After several washes with appropriate buffers and centrifugation steps, the eluates are collected in sterile 1.5-mL tubes on ice, and the RNA quantity in each tube is then quantified with a spectrophotometer. For DNase treatment, 2 μg of RNA is diluted in 15 μL of RNase-free water. 1.75 μL of 10X DNase buffer and 0.75 μL of DNase is then added, followed by incubation at 37° C. for 15 minutes. For reverse transcriptase treatment, 0.88 μL of EDTA […] is added, followed by incubation at 75° C. for 5 minutes. In a PCR tube, […] of DNase-treated RNA is mixed with 4 μL of iScript™ Reverse transcription Supermix (5X) and […] of nuclease-free water. The mix is incubated in a PCR machine with the following program: 5 min at 25° C., 30 min at 42° C. and 5 min at 85° C. Newly synthesized cDNA is transferred in sterile 1.5-mL tubes and diluted in 2 μL of nuclease-free water. 18 μL per well of a qPCR machine (CFX-96™) mix is then added in a PCR plate for analysis.
Briefly, THP-1 cells were plated at 30 000 cells/well one day before transduction. HOXB4-WT recombinant protein ([…]; Example 14.1) was co-incubated with different concentrations of His-CM18-PTD4 ([…]) and then exposed to THP-1 cells for 2.5 hours in the presence of serum. The cells were subjected to real time-PCR analysis as described in Example 14.2 to measure the mRNA levels of a target gene as a marker for HOXB4 activity, which was then normalized to the target gene mRNA levels detected in the negative control cells (no treatment), to obtain a “Fold over control” value. Total RNA levels (ng/μL) were also measured as a marker for cell viability.
Briefly, THP-1 cells were plated at 30 000 cells/well one day before the first time course experiment. HOXB4-WT recombinant protein (1.5 μM; Example 14.1) was co-incubated with His-CM18-PTD4 (0.8 μM) and then exposed to THP-1 cells for 0, 2.5, 4, 24 or 48 hours in presence of serum. The cells were subjected to real time-PCR analysis as described in Example 14.2 to measure mRNA levels of a target gene as a marker for HOXB4 activity, which was then normalized to the target gene mRNA levels detected in the negative control cells (no treatment), to obtain a “Fold over control” value. Total RNA levels (ng/μL) were also measured as a marker for cell viability.
Briefly, THP-1 cells were plated at 30 000 cells/well one day before the first time course experiment. HOXB4-WT recombinant protein (0.3 μM; Example 14.1) was co-incubated with His-CM18-PTD4 (0.8 μM) and then exposed to THP-1 cells for 0, 0.5, 1, 2, 2.5, 3 or 4 hours in presence of serum. The cells were subjected to real time-PCR analysis as described in Example 14.2 to measure mRNA levels of a target gene as a marker for HOXB4 activity, which was then normalized to target gene mRNA levels detected in the negative control cells (no treatment), to obtain a “Fold over control” value. Total RNA levels (ng/μL) were also measured as a marker for cell viability.
Briefly, THP-1 cells were plated at 30 000 cells/well one day before the first time course experiment. HOXB4-WT recombinant protein (1.5 μM; Example 14.1) co-incubated with the shuttle agents His-CM18-PTD4, TAT-KALA, EB1-PTD4, His-C(LLKK)3C-PTD4 and His-CM18-PTD4-His at 0.8 μM, and then exposed to THP-1 cells for 2.5 hours in presence of serum. The cells were subjected to real time-PCR analysis as described in Example 14.2 to measure mRNA levels of a target gene as a marker for HOXB4 activity, which was then normalized to target gene mRNA levels detected in the negative control cells (no treatment), to obtain a “Fold over control” value. […]

`CC[C@H](C)[C@H](NC(=O)[C@H](CCCCN)NC(=O)[C@H](CCCCN)NC(=O)[C@H](Cc1ccccc1)NC(=O)[C@H](CC(C)C)NC(=O)[C@H](CCCCN)NC(=O)[C@H](Cc1c[nH]c2ccccc12)NC(=O)[C@H](CCCCN)NC(=O)[C@H](Cc1c[nH]cn1)NC(=O)[C@H](Cc1c[nH]cn1)NC(=O)[C@H](Cc1c[nH]cn1)NC(=O)[C@H](Cc1c[nH]cn1)NC(=O)[C@H](Cc1c[nH]cn1)NC(=O)[C@@H](N)Cc1c[nH]cn1)C(=O)NCC(=O)N[C@@H](C)C(=O)N[C@H](C(=O)N[C@@H](CC(C)C)C(=O)N[C@@H](CCCCN)C(=O)N[C@H](C(=O)N[C@@H](CC(C)C)C(=O)N[C@H](C(=O)N[C@H](C(=O)NCC(=O)N[C@@H](Cc1ccc(O)cc1)C(=O)N[C@@H](C)C(=O)N[C@@H](CCCNC(=N)N)C(=O)N[C@@H](C)C(=O)N[C@@H](C)C(=O)N[C@@H](C)C(=O)N[C@@H](CCCNC(=N)N)C(=O)N[C@@H](CCC(N)=O)C(=O)N[C@@H](C)C(=O)N[C@@H](CCCNC(=N)N)C(=O)N[C@@H](C)C(=O)O)[C@@H](C)O)[C@@H](C)O)C(C)C)C(C)C` [His-CM18-PTD4] was tested, and the “antibody delivery (microscopy, in words)” value (HeLa cells) was “successfully transduced and delivered to the nucleus and/or the cytosol”, the “Cell viability (%) (±St. Dev.; n = 3)” value (HT2 cells) was 90.6 ± 1.5% and the “Mean % cells with GFP signal (±St. Dev.; n = 3)” value (HT2 cells) was 30.5 ± 2.5%. The “target gene mRNA transcription after HOXB4-WT transduction (in words)” value (THP-1 cells; 2.5 hours in the presence of serum) was “dose-dependent increase in mRNA transcription of the target gene”, the “Total RNA in ng/μL (mean ± St. Dev)” value (THP-1 cells; Table 14.1, 2.5 hours, shuttle 1 μM, HOXB4-WT 0 μM (alone)) was 252 ± 10.7 ng/µL and the “Total RNA in ng/μL (mean ± St. Dev)” value (THP-1 cells; Table 14.2, shuttle 0.8 μM, HOXB4-WT 0 μM (alone), exposure 2.5 h) was 184 ± 6.0 ng/µL. The “Total RNA in ng/μL (mean ± St. Dev)” value (THP-1 cells; Table 14.3, shuttle 0 μM, HOXB4-WT 0.3 μM (alone), exposure 2.5 h) was 260 ± 7.1 ng/µL and the “Total RNA in ng/μL (mean ± St. Dev)” value (THP-1 cells; Table 14.4, shuttle 0 μM, HOXB4-WT 1.5 μM (alone), exposure 2.5 h) was 303.9 ± 7.6 ng/µL.
